Data taken from patent US11883821B2, “Fluidic device for the detection, capture, or removal of a disease material” (Vanderbilt University, priority 2016, dated 2024).

Tests used:
red blood cell = type: cell-based, human
Procedure: This process was repeated for the PEGylated device. Red blood cell lysis was then analyzed to determine release of free hemoglobin in plasma. Plasma hemoglobin was measured by according to well-established protocols. Following passage through the device, the blood samples were centrifuged (500×g) and the supernatant was spectrophotometrically analyzed for hemoglobin release using a plate-reader (Tecan, Infinite M1000 Pro) at 451 nm in order to determine percent hemolysis relative to the Triton-X positive control. Triton X-100 (Sigma-Aldrich) was diluted in diH2O to result in a 20 v/v % Triton-X detergent concentration, which served as the positive control. The negative control used was EDTA-anticoagulated whole, human blood that was not flowed through a double spiral microfluidic device (i.e. untreated). Percent of hemoglobin release was calculated according to the following equation: Hemoglobin release (%)=[(Sample451nm−Negative control451nm=)/(Positive control451nm−Negative control451nm)]×100%. Complete blood counts of each sample (i.e. untreated, colistinated device, PEGylated device) were performed by the Vanderbilt University Translational Pathology Shared Resource Core.

[1] = system: Acinetobacter baumannii 'Patient 2'; assay: Colistin MIC by standard agar dilution; type: cell-based; conditions: colistin-resistant isolate
Procedure: Bacterial cultures (i.e., Acinetobacter baumannii ATCC17978, Colistin-resistant Acinetobacter baumannii 19606R^41. Colistin-resistant Acinetobacter baumannii-Patient 2′. Klebsiella pneumoniae ATCC700603. Bacillus subtilis 1A578 (Bacillus Genetic Stock Center), Staphylococcus aureus ATCC29213) were plated on LB agar (Sigma-Aldrich, Lot #SLBR1403V) and grown overnight at 37° C. Single colonies of each strain were then inoculated in LB broth (IX) (Gibco, Lot #1803272) and grown at 37° C. for 18 hours shaking at 150 rpm. Cell concentrations were measured with OD595 spectrometry (Infinite F500. Tecan).
Colistin minimum inhibitory concentrations (MIC) of bacterial strains were confirmed by standard agar dilution methods. Results were interpreted according to the Clinical and Laboratory Standards Institute susceptibility breakpoints.

Row | Substance | Hemolysis (%) (red blood cell) | Colistin MIC [1] [µg/mL]
1 | Triton X-100 [Positive control (20 v/v % Triton-X)] | 100% ± 3.08% | –
2 | Colistin | – | >256
